Here are results for 2 compounds from paper PMC7435868, “Structure-Based Virtual Screening, Synthesis and Biological Evaluation of Potential FAK-FAT Domain Inhibitors for Treatment of Metastatic Cancer” (Molecules, 2020).

Where a name gives a salt, the structure may show the parent alone. Read-outs that look alike come from different tables or passages of the source. A value given as a limit tells only on which side of the number the result lay.

Data set [1] addresses hERG potassium channel (Homo sapiens, UniProt Q12809). Briefly: hERG channel inhibition (IonWorks automated patch clamp, CHO-hERG cells).
Description: Mammalian cells expressing the hERG potassium channel were dispensed into 384-well planar arrays and hERG tail-currents measured by whole-cell voltage-clamping. A range of concentrations of the test compound was then added to the cells and a second recording of the hERG current was made. […] IC50 is delivered, standard error (SE IC50), and n (number of data points used to calculate IC50) for the test compound. The experiments were performed on an Ion Works TM automated patch clamp instrument (Molecular Devices LLC (San Jose, California, United States)), which simultaneously performs electrophysiology measurements for 48 single cells in a specialised 384-well plate (PatchPlateTM(manufacturer, city, state if USA or Canada, country)). All cell suspensions, buffers, and test compound solutions were at room temperature during the experiment.
The cells used were Chinese hamster ovary (CHO) cells stably transfected with hERG (cell-line obtained from Cytomyx, UK). A single-cell suspension was prepared in extracellular solution (Dulbecco’s phosphate buffered saline with calcium and magnesium pH 7.2) and aliquots added automatically to each well of a Patch Plate TM. The cells were then positioned over a small hole at the bottom of each well by applying a vacuum beneath the plate to form an electrical seal. The vacuum was applied through a single compartment common to all wells which was filled with intracellular solution (buffered to pH 7.2 with HEPES). The resistance of each seal was measured via a common ground-electrode in the intracellular compartment and individual electrodes placed into each of the upper wells.
Electrical access to the cell was then achieved by circulating a perforating agent, amphotericin B, underneath the PatchPlateTM. The pre-compound hERG current was then measured. An electrode was positioned in the extracellular compartment and a holding potential of −80 mV applied for 15 s. The hERG channels were then activated by applying a depolarising step to +40 mV for 5 s and then clamped at −50 mV for 4 s to elicit the hERG tail current, before returning to −80 mV for 0.3 s.
The Ion Works TM instrument automatically adds test compound dilutions to the upper wells of the PatchPlateTM. The test compound was left in contact with the cells for 300 s before recording currents using the same voltage-step protocol as in the pre-compound scan.
Each concentration was tested in 4 replicate wells on the PatchPlateTM (maximum of 24 data points). Filters were applied to ensure only acceptable cells were used to assess hERG inhibition.
For each replicate, the hERG response was calculated using the following equation:% hERG response = [Post-compound current (nA)/Pre-compound current (nA)] × 100(5)
A short description of data set [2]: Microsomal metabolic stability. As for the experimental part: Half-life (t1/2) values were measured at five time points.
Intrinsic clearance values (CLint) with standard error and t1⁄2 values were measured.
The final incubation volume was 50 μL. A minus cofactor control incubation was included for each compound tested where 0.1 M phosphate buffer pH 7.4 was added instead of NADPH (minus NADPH). Two control compounds were included with each species. All incubations were performed singularly for each test compound.
The reactions were stopped by transferring 20 μL of incubate to 60 μL methanol at the appropriate time points. The termination plates were centrifuged at 2500 rpm for 20 min at 4 °C to precipitate the protein.
Following protein precipitation, the sample supernatants were combined in cassettes of up to 4 compounds, the internal standard was added, and samples were analysed using Cyprotex generic LC-MS/MS conditions.
From a plot of ln peak area ratio (compound peak area/internal standard peak area) against time, the gradient of the line was determined.

In data set [3] the test system is T47D. Briefly: Cell viability assay (CellTiter Glo), T47D. In kind it is cell-based, human. As to conditions: 72 h incubation, mean of independent triplicate experiments, read-out: In vitro anti-proliferative activity IC50, T47D ER+ PR+/- HER-. As for the experimental part:
(§1) The antiproliferative activity of compound I as well as its newly synthesised analogues (5a–i) was evaluated in vitro against the three human breast cancer cell lines MDA-MB-231 (TNBC), T47D (ER^+, HER^−), and BT474 (ER^+, HER^+) as well as a human pancreatic cancer cell line MIAPaCa2. The seeding of the corresponding cell lines started one day before incubation, which lasted for 72 h with the different concentrations of the tested compounds. CellTiter Glo reagent (25 μL) was added to the cell plate. The luminescence was analysed after 10 min using a PerkinElmer Envision instrument. The test compounds were used at ten different triplicate concentrations in half log increments up to 100 μM.
(In general: In ATP-based viability assays light output follows the ATP content of the culture.)

Data set [4] has as its system BT474. Briefly: Cell viability assay (CellTiter Glo), BT474. In kind it is cell-based, human. As to conditions: 72 h incubation, mean of independent triplicate experiments, read-out: In vitro anti-proliferative activity IC50, BT474 ER+ PR+/- HER+. Here is the method: as §1
In data set [5] the test system is MIAPaCa2. Briefly: Cell viability assay (CellTiter Glo), MIAPaCa2. The class given is cell-based. As to conditions: Homo sapiens, MIA PaCa-2, 72 h incubation, mean of independent triplicate experiments, read-out: In vitro anti-proliferative activity IC50, MIAPaCa2. Here is the method: as §1
Data set [6] concerns MDA-MB-231. Description: Cell viability assay (CellTiter Glo), MDA-MB-231. The class given is cell-based. The conditions noted are these: Homo sapiens, 72 h incubation, mean of independent triplicate experiments, read-out: In vitro anti-proliferative activity IC50, MDA-MB-231 ER- PR- HER-. As for the experimental part: as §1
The subject of data set [7] is MDA-MB-231, T47D, BT474, and MIAPaCa2. Description: Cell viability assay, statements across the four cell lines. In kind it is cell-based, human. The conditions noted are these: for Anti-proliferative activity (in words) across the four cell lines: three human breast and one pancreatic cancer cell line, up to 100 μM. Here is the method: as §1
Data set [8] can be described thus: Turbidimetric aqueous solubility. The class given is physicochemical. The conditions noted are these: 37 °C, 2 h. As for the experimental part:
Both the estimated precipitation range (lower and upper bound) and a mid-range value were measured. Nicardipine and pyrene were used as control compounds.
The test compound was diluted in buffer to give a range of concentrations (1, 3, 10, 30, and 100 μM; final DMSO concentration 1%) and incubated at 37 °C for 2 hr.
The test compound (10 mM in DMSO) was serially diluted to give solutions of 0.1, 0.3, 1, and 3 mM in DMSO. Each test compound concentration was then further diluted 1 to 100 in buffer (typically 0.01 M phosphate buffered saline pH 7.4) so that the final DMSO concentration was 1%, and the final test compound concentrations were 1, 3, 10, 30, and 100 μM. The experiment was performed at 37 °C and each concentration was incubated in 7 replicate wells. The plates were incubated for 2 h at 37 °C before the absorbance was measured at 620 nm. Nicardipine and pyrene were included as control compounds. The solubility of nicardipine is pH dependent whereas the solubility of pyrene is pH independent.
An estimated precipitation range (lower and upper bound) and a calculated mid-range value were returned, along with any relevant comments, in the form of an Excel spreadsheet.

On the set-up of data set [9]: method as in PMID 19610651, PMID 24780592. As to conditions: cited from earlier work.
[10] abbreviates: buffered aqueous solution (PBS pH 7.4, 1% DMSO).

Sequence of hERG potassium channel (Q12809 whole entry): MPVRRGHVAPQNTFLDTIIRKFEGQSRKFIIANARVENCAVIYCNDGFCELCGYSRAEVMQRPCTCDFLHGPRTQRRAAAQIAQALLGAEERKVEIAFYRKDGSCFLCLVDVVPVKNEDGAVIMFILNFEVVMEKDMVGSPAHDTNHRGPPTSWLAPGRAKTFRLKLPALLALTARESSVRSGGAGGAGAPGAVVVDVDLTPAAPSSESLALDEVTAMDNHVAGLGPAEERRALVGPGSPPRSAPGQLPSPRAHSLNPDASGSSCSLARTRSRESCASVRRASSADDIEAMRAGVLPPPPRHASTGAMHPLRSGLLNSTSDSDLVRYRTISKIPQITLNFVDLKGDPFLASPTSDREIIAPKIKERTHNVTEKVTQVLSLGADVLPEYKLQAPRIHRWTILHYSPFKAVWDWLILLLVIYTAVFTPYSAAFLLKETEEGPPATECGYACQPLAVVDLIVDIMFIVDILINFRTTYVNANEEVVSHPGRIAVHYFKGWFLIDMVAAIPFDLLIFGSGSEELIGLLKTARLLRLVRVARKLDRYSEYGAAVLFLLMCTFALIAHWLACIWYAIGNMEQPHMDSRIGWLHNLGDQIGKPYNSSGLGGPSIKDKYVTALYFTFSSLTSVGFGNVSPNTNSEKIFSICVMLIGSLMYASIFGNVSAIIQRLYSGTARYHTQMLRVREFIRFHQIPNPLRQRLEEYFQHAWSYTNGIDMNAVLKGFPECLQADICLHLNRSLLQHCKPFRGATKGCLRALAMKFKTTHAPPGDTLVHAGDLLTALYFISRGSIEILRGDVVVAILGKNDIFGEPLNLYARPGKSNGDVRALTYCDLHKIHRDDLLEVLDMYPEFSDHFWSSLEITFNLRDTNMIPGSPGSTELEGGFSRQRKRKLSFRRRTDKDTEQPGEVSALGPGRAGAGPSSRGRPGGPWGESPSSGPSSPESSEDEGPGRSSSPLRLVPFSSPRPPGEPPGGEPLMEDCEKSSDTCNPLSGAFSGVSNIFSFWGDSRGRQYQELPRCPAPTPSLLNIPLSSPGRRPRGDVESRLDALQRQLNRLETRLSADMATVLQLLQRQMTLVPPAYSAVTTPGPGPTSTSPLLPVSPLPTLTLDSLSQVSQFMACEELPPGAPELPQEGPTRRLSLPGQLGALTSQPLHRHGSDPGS

As for `CC(C)(C)c1ccc(C(CN)c2ccc(C(C)(C)C)cc2)cc1.Cl` [5f, 2,2-Bis(4-tert-butylphenyl)ethan-1-aminium chloride], the IC50 in data set [1] is over 25 µM; in data set [3], 4.59 µM; in [3] (Homo sapiens, T47D, 72 h), 4.7 µM; in data set [4], 4.7 µM; in data set [4] (Homo sapiens, BT-474, 72 h), 4.59 µM; in data set [5], 5.28 µM. The IC50 was 5.06 µM in data set [6]; 4.59 to 5.28 µM in [7] (Homo sapiens, MDA-MB-231, T47D, BT474, and MIAPaCa2, read-out: IC50 values range across cell lines). In data set [2] (human liver microsomes, 0 min), the “Compound Remaining (% of 0 min), 0 min” value was 100 % of 0 min. Further, in data set [2] (human liver microsomes, 5 min), the “Compound Remaining (% of 0 min), 5 min” value was 97.2 % of 0 min. The “Compound Remaining (% of 0 min), 15 min” value in [2] (human liver microsomes, 15 min) is listed as 92.2 % of 0 min. Also, in [2] (human liver microsomes, 30 min), the “Compound Remaining (% of 0 min), 30 min” value is 88.0 % of 0 min. In data set [2] (human liver microsomes, 45 min), the “Compound Remaining (% of 0 min), 45 min” value was 80.7 % of 0 min. Further, in data set [2] (human liver microsomes, minus NADPH control, 45 min), the “Compound Remaining (% of 0 min), Control” value was 88.0 % of 0 min. In data set [2] (human, microsomes, pH 7.4), this compound came in with a half-life at 3 μM of 2.47 h. Besides, in data set [2] (human, pooled liver microsomes, pH 7.4), the microsomal CLint at 3 μM came out at 9.34 µL/min/mg. Moreover, in data set [7], the “Anti-proliferative activity (in words) across the four cell lines” value is listed as “low micromolar antiproliferative activity”. The “Estimated Precipitation Range, Calculated Mid-Range” value in data set [8] (setting [10]) was 3.75 µM. The “Estimated Precipitation Range, Lower Bound” value in data set [8] (setting [10]) was 1 µM. For the same compound, the “Estimated Precipitation Range, Upper Bound” value in [8] (setting [10]) is recorded as 6.5 µM. Besides, the “Aqueous solubility (in words)” value in [8] (turbidimetric) is on record as “relatively reduced solubility comparable to pyrene”.
`CN(C)CCN(Cc1ccc(Cl)cc1)c1ccccn1` [C4, chloropyramine hydrochloride, reference compound]: the IC50 in [3] (Homo sapiens, T47D, 72 h) is over 100 µM; in [4] (Homo sapiens, BT-474, 72 h) it was over 100 µM; in data set [5] it was over 100 µM; in data set [6], 99 µM. Also, in data set [7], the “Anti-proliferative activity (in words) across the four cell lines” value is “did not show any significant anti-proliferative activity up to a concentration of 100 μM”. Besides, the “Concentration at which anticancer activity is displayed” value in data set [9] was over 100 µM.

As a reminder, the half-life is the time in which the quantity being followed falls by half. Broadly, the microsomal CLint is the capacity of the preparation to metabolise the compound, expressed as a volume cleared per time. A higher microsomal CLint goes with faster metabolism.
